Measured values reported in US12285407B2, “Bis-indolylmethane derivatives and uses thereof” (The University of The West Indies, priority 2018, dated 2025).
Like-named read-outs stand apart in the source and are kept apart here.

What was measured:
[1] = test system: MRSA; assay: Adjuvant broth microdilution (antibiotic MIC with SP-BIM at 50 μg/mL); assay type: cell-based, Staphylococcus aureus; settings: antibiotic alone
[2] = test system: Streptococcus pneumoniae; assay: as above; assay type: cell-based; settings: Streptococcus pneumoniae; Streptococcus pneumonia; antibiotic alone; Table 5; read-out: MIC of antibiotic, No compound
[3] = test system: Escherichia coli; assay: microbe, parasite or virus in culture; assay type: cell-based; settings: antibiotic alone, Table 6, read-out: MIC of antibiotic, No compound
[4] = test system: Enterococcus faecalis; assay: Adjuvant broth microdilution (antibiotic MIC with SP-BIM at 50 μg/mL); assay type: cell-based; settings: antibiotic alone
[5] = test system: Enterobacter cloacae; assay: as above; assay type: cell-based; settings: antibiotic alone
[6] = test system: Staphylococcus aureus; assay: Checkerboard synergy (FICI) of antibiotics with SP-BIM; assay type: cell-based; settings: Staphylococcus aureus, Staphylococcus aureus; for MIC: 24 h, antibiotic alone, read-out: MIC antibiotic only
[7] = test system: Streptococcus pneumoniae; assay: as above; assay type: cell-based; settings: for MIC: 24 h, antibiotic alone, read-out: MIC antibiotic only
[8] = test system: Bacillus cereus; assay: as above; assay type: cell-based; settings: for MIC: 24 h, antibiotic alone, read-out: MIC antibiotic only
[9] = test system: Enterococcus faecium; assay: as above; assay type: cell-based; settings: Enterococcus faecium, Enterococcus faecium; for MIC: 24 h, antibiotic alone, read-out: MIC antibiotic only
[10] = test system: Klebsiella pneumoniae; assay: as above; assay type: cell-based; settings: for MIC: 24 h, antibiotic alone, read-out: MIC antibiotic only
[11] = test system: clinical antibiotic resistant isolates of MRSA; assay: Checkerboard resistance breaking by SP-BIM 13; assay type: cell-based, Staphylococcus aureus; settings: for FIC compound / Rescue concentration of SP-BIM 13: SP-BIM 13 with the labelled antibiotic; for Interpretation / Σ FIC: antibiotic + SP-BIM 13; for MIC of antibiotic only: antibiotic alone; for FIC antibiotic: combination with SP-BIM 13; for MIC of antibiotic in combination: with SP-BIM 13 at rescue concentration
[12] = test system: Escherichia coli; assay: Checkerboard synergy (FICI) of antibiotics with SP-BIM; design: MIC SP-BIM 13 only / MIC in combination: Antibiotic: unit not given beside the values; settings: for MIC: 24 h
[13] = test system: Candida albicans; assay: as above; design: MIC SP-BIM 13 only / MIC in combination: Antibiotic / MIC antibiotic only: unit not given beside the values
[14] = SP-BIM 9 in combination with the labelled antibiotic
[15] = SP-BIM 13 in combination with the labelled antibiotic
[16] = antibiotic in combination with SP-BIM 9
[17] = antibiotic in combination with SP-BIM 13
[18] = Streptococcus pneumonia (title: Streptococcus pyogenes), antibiotic + SP-BIM 9
[19] = Streptococcus pneumoniae, antibiotic + SP-BIM 13
[20] = MIC of the antibiotic in combination with SP-BIM 13

Structure (SMILES): C[C@H]1c2cccc(O)c2C(=O)C2=C(O)[C@]3(O)C(=O)C(C(N)=O)=C(O)[C@@H](N(C)C)[C@@H]3[C@@H](O)[C@@H]21 [Doxycycline, doxycycline]
- MIC ([1]; Staphylococcus aureus, Table 4, read-out: MIC of antibiotic, No compound): 8 µg/mL
- MIC of antibiotic, No Compound ([1]; Table 8 (series SP-BIMs 21-29)): <0.5 µg/mL
- MIC [2]: 63 µg/mL
- MIC [3]: 63 µg/mL
- MIC of antibiotic, No Compound [4]: 0.5 µg/mL
- MIC of antibiotic, No Compound [5]: 4 µg/mL
- MIC ([6]; SP-BIM 9 checkerboard): 8 µg/mL
- MIC ([6]; SP-BIM 13 checkerboard): 8 µg/mL
- FIC of SP-BIM 9 [6, 14]: 0.13
- FIC of SP-BIM 13 [6, 15]: 0.3
- Interpretation ([6]; antibiotic + SP-BIM 9): Synergy (Synergy: FICI≤0.5)
- Σ FIC ([6]; antibiotic + SP-BIM 9): <0.38
- Interpretation ([6]; antibiotic + SP-BIM 13): Synergy (Synergy: FICI≤0.5)
- Σ FIC ([6]; antibiotic + SP-BIM 13): 0.4
- MIC in combination, Antibiotic [6, 16]: 2.0 µg/mL
- MIC in combination, Antibiotic [6, 17]: 1 µg/mL
- FIC of antibiotic ([6]; in combination with SP-BIM 9): 0.25
- FIC of antibiotic ([6]; in combination with SP-BIM 13): 0.1
- FIC of SP-BIM 9 ([7]; Streptococcus pneumonia (title: Streptococcus pyogenes), SP-BIM 9 in combination with the labelled antibiotic): 0.50
- Interpretation [7, 18]: Additive (Additive: FICI>0.5-1.0)
- Σ FIC [7, 18]: <0.75
- MIC in combination, Antibiotic ([7]; Streptococcus pneumonia (title: Streptococcus pyogenes), antibiotic in combination with SP-BIM 9): 4 µg/mL
- FIC of antibiotic ([7]; Streptococcus pneumonia (title: Streptococcus pyogenes), in combination with SP-BIM 9): 0.25
- MIC ([7]; Streptococcus pneumoniae, Streptococcus pneumonia (title: Streptococcus pyogenes), SP-BIM 9 checkerboard): 16 µg/mL
- MIC ([7]; Streptococcus pneumoniae, Streptococcus pneumoniae, SP-BIM 13 checkerboard): 16 µg/mL
- FIC of SP-BIM 13 ([7]; Streptococcus pneumoniae, SP-BIM 13 in combination with the labelled antibiotic): 0.3
- Interpretation [7, 19]: Synergy (Synergy: FICI≤0.5)
- Σ FIC [7, 19]: <0.3
- MIC in combination, Antibiotic ([7]; Streptococcus pneumoniae, antibiotic in combination with SP-BIM 13): 1 µg/mL
- FIC of antibiotic ([7]; Streptococcus pneumoniae, in combination with SP-BIM 13): 0.1
- MIC ([8]; SP-BIM 9 checkerboard): 4 µg/mL
- MIC ([8]; SP-BIM 13 checkerboard): 4 µg/mL
- MIC in combination, SP-BIM 9 ([8]; SP-BIM 9 concentration in combination with the labelled antibiotic): 125 µg/mL
- FIC of SP-BIM 9 [8, 14]: 0.5
- FIC of SP-BIM 13 [8, 15]: 0.3
- Interpretation ([8]; antibiotic + SP-BIM 9): Synergy (Synergy: FICI≤0.5)
- Σ FIC ([8]; antibiotic + SP-BIM 9): <0.6
- Interpretation ([8]; antibiotic + SP-BIM 13): Synergy (Synergy: FICI≤0.5)
- Σ FIC ([8]; antibiotic + SP-BIM 13): 0.5
- MIC in combination, Antibiotic [8, 16]: 0.5 µg/mL
- MIC in combination, Antibiotic [8, 17]: 1 µg/mL
- FIC of antibiotic ([8]; in combination with SP-BIM 9): 0.125
- FIC of antibiotic ([8]; in combination with SP-BIM 13): 0.25
- MIC ([9]; SP-BIM 9 checkerboard): 8 µg/mL
- MIC ([9]; SP-BIM 13 checkerboard): 8 µg/mL
- FIC of SP-BIM 13 [9, 15]: 0.5
- Interpretation ([9]; antibiotic + SP-BIM 13): Additive (Additive: FICI>0.5-1.0)
- Σ FIC ([9]; antibiotic + SP-BIM 13): 0.6
- MIC in combination, Antibiotic [9, 17]: 1 µg/mL
- FIC of antibiotic ([9]; in combination with SP-BIM 13): 0.1
- MIC ([10]; SP-BIM 9 checkerboard): 16 µg/mL
- MIC ([10]; SP-BIM 13 checkerboard): 16 µg/mL
- FIC of SP-BIM 9 [10, 14]: 0.5
- FIC of SP-BIM 13 [10, 15]: 0.3
- Interpretation ([10]; antibiotic + SP-BIM 9): Additive (Additive: FICI>0.5-1.0)
- Σ FIC ([10]; antibiotic + SP-BIM 9): <0.8
- Interpretation ([10]; antibiotic + SP-BIM 13): Synergy (Synergy: FICI≤0.5)
- Σ FIC ([10]; antibiotic + SP-BIM 13): <0.4
- MIC in combination, Antibiotic [10, 16]: 4 µg/mL
- MIC in combination, Antibiotic [10, 17]: 2 µg/mL
- FIC of antibiotic ([10]; in combination with SP-BIM 9): 0.25
- FIC of antibiotic ([10]; in combination with SP-BIM 13): 0.1
- FIC compound ([11]; MRSA strain 1594): 0.3
- Rescue concentration of SP-BIM 13 ([11]; MRSA strain 1594): 63 µg/mL
- Interpretation ([11]; MRSA strain 1594): Synergy (Synergy: FICI≤0.5)
- Σ FIC ([11]; MRSA strain 1594): <0.43
- MIC of antibiotic only ([11]; MRSA strain 1594): 8 µg/mL
- FIC antibiotic ([11]; MRSA strain 1594): 0.125
- MIC of antibiotic in combination ([11]; MRSA strain 1594): 1 µg/mL
- FIC compound ([11]; MRSA strain 5872): 0.064
- Rescue concentration of SP-BIM 13 ([11]; MRSA strain 5872): 16 µg/mL
- Interpretation ([11]; MRSA strain 5872): Synergy (Synergy: FICI≤0.5)
- Σ FIC ([11]; MRSA strain 5872): <0.19
- MIC of antibiotic only ([11]; MRSA strain 5872): 32 µg/mL
- FIC antibiotic ([11]; MRSA strain 5872): 0.125
- MIC of antibiotic in combination ([11]; MRSA strain 5872): 4 µg/mL
- FIC compound ([11]; MRSA strain 7153): 0.128
- Rescue concentration of SP-BIM 13 ([11]; MRSA strain 7153): 32 µg/mL
- Interpretation ([11]; MRSA strain 7153): Synergy (Synergy: FICI≤0.5)
- Σ FIC ([11]; MRSA strain 7153): <0.25
- MIC of antibiotic only ([11]; MRSA strain 7153): 8 µg/mL
- FIC antibiotic ([11]; MRSA strain 7153): 0.125
- MIC of antibiotic in combination ([11]; MRSA strain 7153): 1 µg/mL
- FIC compound ([11]; MRSA strain 7172): 0.128
- Rescue concentration of SP-BIM 13 ([11]; MRSA strain 7172): 32 µg/mL
- Interpretation ([11]; MRSA strain 7172): Synergy (Synergy: FICI≤0.5)
- Σ FIC ([11]; MRSA strain 7172): <0.38
- MIC of antibiotic only ([11]; MRSA strain 7172): 8 µg/mL
- FIC antibiotic ([11]; MRSA strain 7172): 0.250
- MIC of antibiotic in combination ([11]; MRSA strain 7172): 2 µg/mL
- FIC compound ([11]; MRSA strain 7698): 0.128
- Rescue concentration of SP-BIM 13 ([11]; MRSA strain 7698): 32 µg/mL
- Interpretation ([11]; MRSA strain 7698): Synergy (Synergy: FICI≤0.5)
- Σ FIC ([11]; MRSA strain 7698): <0.19
- MIC of antibiotic only ([11]; MRSA strain 7698): 16 µg/mL
- FIC antibiotic ([11]; MRSA strain 7698): 0.063
- MIC of antibiotic in combination ([11]; MRSA strain 7698): 1 µg/mL
- FIC compound ([11]; MRSA strain 10132): 0.032
- Rescue concentration of SP-BIM 13 ([11]; MRSA strain 10132): 8 µg/mL
- Interpretation ([11]; MRSA strain 10132): Synergy (Synergy: FICI≤0.5)
- Σ FIC ([11]; MRSA strain 10132): <0.09
- MIC of antibiotic only ([11]; MRSA strain 10132): 8 µg/mL
- FIC antibiotic ([11]; MRSA strain 10132): 0.063
- MIC of antibiotic in combination ([11]; MRSA strain 10132): 0.5 µg/mL
- MIC ([12]; read-out: MIC antibiotic only, Escherichia coli, antibiotic alone): 16 µg/mL
- MIC ([12]; read-out: MIC antibiotic only, Escherichia coli, antibiotic alone, SP-BIM 9 checkerboard): 16 µg/mL
- MIC in combination: Antibiotic [12, 20]: 2
- FIC of SP-BIM 9 [12, 14]: 0.5
- FIC of SP-BIM 13 [12, 15]: 0.3
- Interpretation ([12]; antibiotic + SP-BIM 9): Synergy (Synergy: FICI≤0.5)
- Σ FIC ([12]; antibiotic + SP-BIM 9): <1.0
- Interpretation ([12]; antibiotic + SP-BIM 13): Synergy (Synergy: FICI≤0.5)
- Σ FIC ([12]; antibiotic + SP-BIM 13): <0.4
- MIC in combination, Antibiotic [12, 16]: 8 µg/mL
- FIC of antibiotic ([12]; combination with SP-BIM 13): 0.1
- FIC of antibiotic ([12]; in combination with SP-BIM 9): 0.5
- MIC ([13]; 24 h, read-out: MIC antibiotic only): 16 µg/mL
- MIC in combination: Antibiotic [13, 20]: 2
- FIC of SP-BIM 13 [13, 15]: 0.5
- Interpretation ([13]; antibiotic + SP-BIM 13): Additive (Additive: FICI>0.5-1.0)
- Σ FIC ([13]; antibiotic + SP-BIM 13): <0.6
- FIC of antibiotic ([13]; combination with SP-BIM 13): 0.1
